Experimental data as given in patent US20090217396A1, “Inflammation models in neurodegenerative and arthritic disorders” (priority 2004, published 2009).
“Also recorded” adds a separate entry of the source.

Legend:
293HGLVP/CrePr cells = assay: RU486-induced CrePr activation of transfected IL-1β^XAT; type: cell-based, human
Protocol: Neurobiol Aging 23:977-84] and the expression of IL-1β and lacZ was evaluated following RU486 (10^-7M) administration.
Mol Ther 8: 790-95]. […] Please refer to FIG. 3 for summary of the experiment.

[1] = tested on: primary rat endothelial cell cultures; assay: Regulation of inflammation-related genes by IL-1β with or without indomethacin in endothelial cells; type: cell-based
Protocol: The effects of IL-1β were evaluated in vitro utilizing primary rat endothelial cell cultures as a representative rodent cell type. In this experiment, murine IL-1β (10 ng/mL) was administered exogenously to cultured primary cells, and subsequently examined the regulation of several inflammation-related genes at the transcript level over the course of 72 hours. These molecules include (A) the inducible isoform of cyclooxygenase (COX-2), intercellular adhesion molecule-1 (ICAM-1) and monocyte chemoattractant protein-1 (MCP-1), as well as (B) the […]. Panel (C) depicts enzyme activity levels of MMP-2 and MMP-9 as evaluated by zymography.
The regulation of pro-collagen IV was also included in the study as control (not an inflammatory gene)—Panel B.
Mol Ther 8: 790-95], rat endothelial cells were employed as a representative rodent model to investigate the effects of IL-1β on the regulation of ICAM-1, MCP-1, MMP-2 and MMP-9 at the transcriptional level (mRNA) as well as the enzyme activity level (zymography).
Non-steroidal anti-inflammatory drugs (NSAIDS) are inhibitors of cyclooxygenase, a rate-limiting enzyme in the production of prostaglandins. Indomethacin, a prototype NSAID often employed in laboratory studies as well as in the hospital setting, has been evaluated for the potential to modulate the inflammatory response elicited by pro-inflammatory cytokines, such as IL-1β. To this end, rodent cells were utilized as a model to study the interaction between IL-1β, and indomethacin in vitro [Kyrkanides S, et al. (2000).

C57BL/6 mice = conditions: morphine intraperitoneal 30 min prior to formalin injection
adult mice = assay: IL-1β injection into the cisterna magna: CGRP and GFAP IHC; type: in vivo, mouse; conditions: 10 ng in 2 μl into cisterna magna
Protocol: FIG. 51 whose IL-1β injection into the cisterna magna induces neuronal excitation and astrocyte activation. Recombinant IL-1β was injected into the cisterna magna of adult mice (10 ng in 2 μl of aqueous solution). Neuronal excitation was evaluated by CGRP and astrocyte activation by GFAP IHC. (A) The saline-injected mouse is characterized by lack of CGRP expression at the main sensory nucleus. […] GFAP immunohistochemistry in (C) control and (D) experimental mice.

[2] = INDO + IL-1β simultaneously vs IL-1β alone (FIG. 7)
[3] = murine IL-1β 10 ng/mL, over 72 hours (FIG. 6)
[4] = recombinant IL-1β alone (FIG. 7)

CC#C[C@]1(O)CC[C@H]2[C@@H]3CCC4=CC(=O)CCC4=C3[C@@H](c3ccc(N(C)C)cc3)C[C@@]21C [RU486, mifepristone]
IL-1β and lacZ mRNA (RT-PCR) (293HGLVP/CrePr cells; RU486 10^-7M, IL-1β^XAT transiently transfected): up-regulation | secreted IL-1β protein in supernatant media (ELISA for human IL-1β) (293HGLVP/CrePr cells; RU486-treated cells): significantly higher levels | IL-1β^XAT DNA recombination (293HGLVP/CrePr cells; RU486 administration following IL-1β^XAT transfection): DNA excisional recombination | number of X-gal positive cells (β-galactosidase reporter) (293HGLVP/CrePr cells; RU486 in culture media vs naïve cells): significant increase

COc1ccc2c(c1)c(CC(=O)O)c(C)n2C(=O)c1ccc(Cl)cc1 [indomethacin]
ICAM-1, MCP-1 and MMP-9 transcript levels [1, 2]: further increased | collagenase activity of MMP-2 and MMP-9 [1, 2]: further increased | expression of inflammatory mediators induced by IL-1β ([1]; indomethacin with IL-1β, rodent cells in vitro (FIG. 7)): further exacerbated

CN1CC[C@]23c4c5ccc(O)c4O[C@H]2[C@@H](O)C=C[C@H]3[C@H]1C5 [morphine]
orofacial grooming in formalin-challenged mice (C57BL/6 mice): normalized; also recorded: attenuation of orofacial grooming in formalin-challenged mice to near normal levels

B1: IL-1β: recombinant IL-1β cytokine administered exogenously to cells or injected into the cisterna magna (protein, UniProt P10749 118-269, looked up)
Interleukin-1 beta: VPIRQLHYRLRDEQQKSLVLSDPYELKALHLNGQNINQQVIFSMSFVQGEPSNDKIPVALGLKGKNLYLSCVMKDGTPTLQLESVDPKQYPKKKMEKRFVFNKIEVKSKVEFESAEFPNWYISTSQAEHKPVFLGNNSGQDIIDFTMESVSS
astrocyte activation (GFAP IHC) in brain stem (adult mice): activation of astrocytes | CGRP expression at main sensory nucleus (neuronal excitation) (adult mice; vs saline): pronounced CGRP immunoreactivity | MMP-2 enzyme activity (zymography) [1, 3]: increased with time | mRNA levels of MMP-2 [1, 3]: not altered | synthesis of COX-2, MCP-1, ICAM-1 and MMP-9 (mRNA) [1, 3]: upregulated | enzyme activity of MMP-2 and MMP-9 (zymography) [1, 4]: upregulated | transcriptional expression of ICAM-1, MCP-1 and MMP-9 (RT-PCR) [1, 4]: induced
